The target in this test is T1, AR in VCaP cells (Homo sapiens, UniProt P10275).
T1 construct: endogenous in cells; host or cells: VCaP cells
T1 sequence (P10275 1-920): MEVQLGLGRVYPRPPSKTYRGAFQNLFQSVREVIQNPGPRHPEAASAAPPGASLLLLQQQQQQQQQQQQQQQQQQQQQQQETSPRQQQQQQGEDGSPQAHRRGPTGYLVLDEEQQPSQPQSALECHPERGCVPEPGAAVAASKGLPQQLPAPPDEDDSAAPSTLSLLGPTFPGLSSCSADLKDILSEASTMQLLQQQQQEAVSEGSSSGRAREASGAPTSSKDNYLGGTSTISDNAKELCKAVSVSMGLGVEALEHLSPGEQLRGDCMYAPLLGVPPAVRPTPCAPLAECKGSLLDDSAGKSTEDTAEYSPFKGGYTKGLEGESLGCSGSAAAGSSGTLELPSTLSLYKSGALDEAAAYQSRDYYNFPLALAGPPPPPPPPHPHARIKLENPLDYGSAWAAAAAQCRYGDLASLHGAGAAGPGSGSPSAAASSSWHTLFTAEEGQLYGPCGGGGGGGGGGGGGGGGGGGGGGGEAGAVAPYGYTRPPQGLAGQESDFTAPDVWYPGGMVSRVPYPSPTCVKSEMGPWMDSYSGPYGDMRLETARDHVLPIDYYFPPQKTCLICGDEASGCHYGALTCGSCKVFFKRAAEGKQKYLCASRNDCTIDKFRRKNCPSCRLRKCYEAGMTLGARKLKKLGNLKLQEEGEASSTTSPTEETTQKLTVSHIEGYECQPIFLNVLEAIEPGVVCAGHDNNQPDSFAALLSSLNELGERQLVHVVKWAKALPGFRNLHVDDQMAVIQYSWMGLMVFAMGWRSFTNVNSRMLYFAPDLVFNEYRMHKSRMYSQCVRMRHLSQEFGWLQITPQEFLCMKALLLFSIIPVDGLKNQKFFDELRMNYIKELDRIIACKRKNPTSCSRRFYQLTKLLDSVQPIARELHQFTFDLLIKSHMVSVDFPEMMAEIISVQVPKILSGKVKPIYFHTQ
In words: VCAP AR Degradation Assay (AR ELISA, 24 h). It is filed as cell-based. To be noted: for DC50: concentration giving 50% AR degradation vs DMSO control; for remaining activity at up to 5 µM: lowest measured AR level normalized to DMSO control, top concentration 5 μM, read-out: Y. The protocol:
VCAP AR Degradation Assay. Test compounds were pre-dispensed into a Corning CellBind 96-well clear bottom plate (Cat #3300) using an acoustic dispenser to make a 10-point concentration series at 1:3 dilution for each compound. The final top concentration of each compound was 5 μM. DMSO at a final concentration of 0.1% was used as a control. VCaP cells cultured in DMEM with 8% fetal bovine serum (FBS) were seeded at 50K cells per well in a 200 μL volume into the compound plate and incubated at 37° C. in a CO2 incubator for 24 h. The medium was carefully removed from the cells and the plate was placed on ice. One hundred μL of ice-cold 1× cell lysis buffer from Cell Signaling Technologies (Cat #9803) was added to each well of the cells and the plate was incubated at 4° C. on a shaker for 1 h. Fifteen μL of cell lysate was used for AR ELISA detection using a PathScan Total Sandwich AR ELISA kit (Cell Signaling Technology, Cat #12580). AR levels in compound-treated wells were normalized to that of DMSO control and expressed as percent of control (PoC) (y). A Four Parameter Logistic Model (Sigmoidal Dose-Response Model) was used to determine the compound's DC50, and EC50, using the following equation: […]
The lowest measured AR level normalized to DMSO control in response to compound treatment, termed Y value, was used to characterize the compound-mediated AR degradation efficiency.
In general terms: In an ELISA, binding on a coated surface is turned into a signal by an enzyme label.

Counter-ions that a name gives are not always drawn.

For `CC1(C)C(=O)N(c2ccc(C#N)c(C(F)(F)F)c2)C(=S)N1[C@H]1CC[C@H](OCCN2CCN(CC(=O)Nc3ccc(C4CCC(=O)NC4=O)nc3)[C@@H](C(F)(F)F)C2)CC1` (stereo partly drawn) [Cmpd 13, 2-((R)-4-(2-((trans-4-(3-(4-Cyano-3-(trifluoromethyl)phenyl)-5,5-dimethyl-4-oxo-2-thioxoimidazolidin-1-yl)cyclohexyl)oxy)ethyl)-2-(trifluoromethyl)piperazin-1-yl)-N-(6-(2,6-dioxopiperidin-3-yl)pyridin-3-yl)acetamide hydrochloride], the DC50 was 5 to 10 nM and the remaining activity at up to 5 µM is 20 to 30%.

Consider `C[C@@H]1C[C@@H](CCO[C@H]2CC[C@H](N3C(=S)N(c4ccc(C#N)c(C(F)(F)F)c4)C(=O)C3(C)C)CC2)C[C@H](C)N1CC(=O)Nc1ccc(C2CCC(=O)NC2=O)nc1` (stereo partly drawn) [Cmpd 14, 2-((2R,4r,6S)-4-(2-((trans-4-(3-(4-Cyano-3-(trifluoromethyl)phenyl)-5,5-dimethyl-4-oxo-2-thioxoimidazolidin-1-yl)cyclohexyl)oxy)ethyl)-2,6-dimethylpiperidin-1-yl)-N-(6-(2,6-dioxopiperidin-3-yl)pyridin-3-yl)acetamide hydrochloride], for which the DC50 was at most 5 nM and the remaining activity at up to 5 µM lay within 20 to 30%.

For `C[C@@H]1CN(CCCC[C@H]2CC[C@H](N3C(=S)N(c4ccc(C#N)c(C(F)(F)F)c4)C(=O)C3(C)C)CC2)C[C@H](C)N1CC(=O)Nc1ccc(N2CCC(=O)NC2=O)nc1` [Cmpd 15, 2-((2R,6S)-4-(4-((trans)-4-(3-(4-Cyano-3-(trifluoromethyl)phenyl)-5,5-dimethyl-4-oxo-2-thioxoimidazolidin-1-yl)cyclohexyl)butyl)-2,6-dimethylpiperazin-1-yl)-N-(6-(2,4-dioxotetrahydropyrimidin-1(2H)-yl)pyridin-3-yl)acetamide], the DC50 was in the range of 100 to 10000 nM and the remaining activity at up to 5 µM is 30 to 70%.

`C[C@@H]1CN(CCCC[C@H]2CC[C@H](N3C(=S)N(c4ccc(C#N)c(C(F)(F)F)c4)C(=O)C3(C)C)CC2)C[C@H](C)N1CC(=O)Nc1ccc(C2CCC(=O)NC2=O)nc1` (stereo partly drawn) [Cmpd 16, 2-((2R,6S)-4-(4-((trans)-4-(3-(4-Cyano-3-(trifluoromethyl)phenyl)-5,5-dimethyl-4-oxo-2-thioxoimidazolidin-1-yl)cyclohexyl)butyl)-2,6-dimethylpiperazin-1-yl)-N-(6-(2,6-dioxopiperidin-3-yl)pyridin-3-yl)acetamide]: the DC50 was at most 5 nM and the remaining activity at up to 5 µM was 20 to 30%.

Consider `C[C@@H]1C[C@H](CCO[C@H]2CC[C@H](N3C(=S)N(c4ccc(C#N)c(C(F)(F)F)c4)C(=O)C3(C)C)CC2)C[C@H](C)N1CC(=O)Nc1ccc(C2CCC(=O)NC2=O)nc1` (stereo partly drawn) [Cmpd 17, 2-((2R,4r,6S)-4-(2-(((trans)-4-(3-(4-Cyano-3-(trifluoromethyl)phenyl)-5,5-dimethyl-4-oxo-2-thioxoimidazolidin-1-yl)cyclohexyl)oxy)ethyl)-2,6-dimethylpiperidin-1-yl)-N-(6-(2,6-dioxopiperidin-3-yl)pyridin-3-yl)acetamide], for which the DC50 is at most 5 nM and the remaining activity at up to 5 µM is 20 to 30%.

In the case of `C[C@@H]1C[C@H](CCO[C@H]2CC[C@H](N3C(=S)N(c4cnc(C#N)c(C(F)(F)F)c4)C(=O)C3(C)C)CC2)C[C@H](C)N1CC(=O)Nc1ccc(C2CCC(=O)NC2=O)nc1` (stereo partly drawn) [Cmpd 18, 2-((2R,4r,6S)-4-(2-(((trans)-4-(3-(6-Cyano-5-(trifluoromethyl)pyridin-3-yl)-5,5-dimethyl-4-oxo-2-thioxoimidazolidin-1-yl)cyclohexyl)oxy)ethyl)-2,6-dimethylpiperidin-1-yl)-N-(6-(2,6-dioxopiperidin-3-yl)pyridin-3-yl)acetamide], the DC50 was at most 5 nM and the remaining activity at up to 5 µM was in the range of 0 to 20%.

Turning to `C[C@@H]1C[C@@H](CCO[C@H]2CC[C@H](N3C(=S)N(c4cnc(C#N)c(C(F)(F)F)c4)C(=O)C3(C)C)CC2)C[C@H](C)N1CC(=O)Nc1ccc(C2CCC(=O)NC2=O)nc1` (stereo partly drawn) [Cmpd 19, 2-((2R,4s,6S)-4-(2-(((trans)-4-(3-(6-Cyano-5-(trifluoromethyl)pyridin-3-yl)-5,5-dimethyl-4-oxo-2-thioxoimidazolidin-1-yl)cyclohexyl)oxy)ethyl)-2,6-dimethylpiperidin-1-yl)-N-(6-(2,6-dioxopiperidin-3-yl)pyridin-3-yl)acetamide], the DC50 is at most 5 nM and the remaining activity at up to 5 µM lay within 20 to 30%.

Take `C[C@@H]1C[C@H](OCCC[C@H]2CC[C@H](N3C(=S)N(c4ccc(C#N)c(C(F)(F)F)c4)C(=O)C3(C)C)CC2)C[C@H](C)N1CC(=O)Nc1ccc(C2CCC(=O)NC2=O)nc1` (stereo partly drawn) [Cmpd 20, 2-((2R,4r,6S)-4-(3-((trans)-4-(3-(4-Cyano-3-(trifluoromethyl)phenyl)-5,5-dimethyl-4-oxo-2-thioxoimidazolidin-1-yl)cyclohexyl)propoxy)-2,6-dimethylpiperidin-1-yl)-N-(6-(2,6-dioxopiperidin-3-yl)pyridin-3-yl)acetamide]: the 50% degradation concentration (DC50) fell in the range of 5 to 10 nM and the remaining activity at up to 5 µM lay within 20 to 30%.

Take `CC1(C)C(=O)N(c2cnc(C#N)c(C(F)(F)F)c2)C(=S)N1[C@H]1CC[C@H](CCCN2CCN(CC(=O)Nc3ccc(C4CCC(=O)NC4=O)nc3)[C@@H](C(F)(F)F)C2)CC1` (stereo partly drawn) [Cmpd 21, 2-((R)-4-(3-((trans)-4-(3-(6-Cyano-5-(trifluoromethyl)pyridin-3-yl)-5,5-dimethyl-4-oxo-2-thioxoimidazolidin-1-yl)cyclohexyl)propyl)-2-(trifluoromethyl)piperazin-1-yl)-N-(6-(2,6-dioxopiperidin-3-yl)pyridin-3-yl)acetamide]: the DC50 was at most 5 nM and the remaining activity at up to 5 µM was in the range of 0 to 20%.

With `CC1(C)C(=O)N(c2ccc(C#N)c(C(F)(F)F)c2)C(=S)N1[C@H]1CC[C@H](CCCN2CCN(CC(=O)Nc3ccc(C4CCC(=O)NC4=O)nc3)[C@@H](C(F)(F)F)C2)CC1` (stereo partly drawn) [Cmpd 22, 2-((R)-4-(3-((trans)-4-(3-(4-Cyano-3-(trifluoromethyl)phenyl)-5,5-dimethyl-4-oxo-2-thioxoimidazolidin-1-yl)cyclohexyl)propyl)-2-(trifluoromethyl)piperazin-1-yl)-N-(6-(2,6-dioxopiperidin-3-yl)pyridin-3-yl)acetamide], the DC50 fell in the range of 10 to 100 nM and the remaining activity at up to 5 µM lay in the range of 20 to 30%.

Turning to `CC1(C)C(=O)N(c2cnc(C#N)c(C(F)(F)F)c2)C(=S)N1[C@H]1CC[C@H](OCCCN2CCN(CC(=O)Nc3ccc(C4CCC(=O)NC4=O)nc3)[C@@H](C(F)(F)F)C2)CC1` (stereo partly drawn) [Cmpd 23, 2-((R)-4-(3-(((trans)-4-(3-(6-Cyano-5-(trifluoromethyl)pyridin-3-yl)-5,5-dimethyl-4-oxo-2-thioxoimidazolidin-1-yl)cyclohexyl)oxy)propyl)-2-(trifluoromethyl)piperazin-1-yl)-N-(6-(2,6-dioxopiperidin-3-yl)pyridin-3-yl)acetamide], the DC50 is at most 5 nM and the remaining activity at up to 5 µM fell in the range of 0 to 20%.

Consider `CC1(C)C(=O)N(c2cnc(C#N)c(C(F)(F)F)c2)C(=S)N1[C@H]1CC[C@H](OCCN2CCN(CC(=O)Nc3ccc(C4CCC(=O)NC4=O)nc3)[C@@H](C(F)(F)F)C2)CC1` (stereo partly drawn) [Cmpd 24, 2-((R)-4-(2-(((trans)-4-(3-(6-Cyano-5-(trifluoromethyl)pyridin-3-yl)-5,5-dimethyl-4-oxo-2-thioxoimidazolidin-1-yl)cyclohexyl)oxy)ethyl)-2-(trifluoromethyl)piperazin-1-yl)-N-(6-(2,6-dioxopiperidin-3-yl)pyridin-3-yl)acetamide], for which the DC50 is at most 5 nM and the remaining activity at up to 5 µM is 20 to 30%.

For orientation: DC50 means the midpoint of the concentration-degradation curve.
